Measurements taken from patent US20170121295A1, “POLYCYCLIC LPA1 ANTAGONIST AND USES THEREOF” (AMIRA PHARMACEUTICALS, INC., priority 2010, published 2017).
Like-named read-outs stand apart in the source and are kept apart here.

Experiments:
Human LPA3 = target: T1, Human LPA3 (Homo sapiens, UniProt Q9UBY5); assay: LPA3 Calcium Flux Assay; type: cell-based; conditions: human LPA3 expressing CHO cells, 10 nM LPA; read-out: Ca Flux IC50 LPA3
T1 construct: The full-length cDNA fragment for human LPA3 was obtained by PCR from the vector
T1 sequence (Q9UBY5 1-353): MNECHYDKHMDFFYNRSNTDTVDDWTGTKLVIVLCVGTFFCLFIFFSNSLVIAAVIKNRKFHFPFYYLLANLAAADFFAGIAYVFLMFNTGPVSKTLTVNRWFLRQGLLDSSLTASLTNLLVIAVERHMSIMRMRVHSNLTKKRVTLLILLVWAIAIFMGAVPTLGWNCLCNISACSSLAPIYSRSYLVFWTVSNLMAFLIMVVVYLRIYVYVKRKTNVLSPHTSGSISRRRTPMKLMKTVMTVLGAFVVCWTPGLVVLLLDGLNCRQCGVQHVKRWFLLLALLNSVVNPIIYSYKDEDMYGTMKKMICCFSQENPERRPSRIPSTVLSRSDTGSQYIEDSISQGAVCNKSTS
Method: A vector containing the human LPA3 receptor cDNA was obtained from the Missouri S&T cDNA Resource Center (www.cdna.org). The full-length cDNA fragment for human LPA3 was obtained by PCR from the vector. The nucleotide sequence of the cloned human LPA3 was determined by sequencing and confirmed to be identical to the published human LPA3 sequence (NCBI accession number NM_012152). The cDNA was cloned into the pCDNA5/FRT expression plasmid and transfected in CHO cells using lipofectamine 2000 (Invitrogen Corp., USA). Clones stably expressing human LPA3 were selected using hygromycin and identified as cells that show Ca-influx in response to LPA.
(§1) Human LPA1 or LPA3 expressing CHO cells are seeded at 20,000-45,000 cells per well in a 96-well poly-D-lysine coated plate one or two days before the assay. Prior to the assay, the cells are washed once with PBS and then cultured in serum-free media overnight. On the day of the assay, a calcium indicator dye (Calcium 4, Molecular Devices) in assay buffer (HBSS with Ca^2+ and Mg^2+ and containing 20 mM Hepes and 0.3% fatty-acid free human serum albumin) is added to each well and incubation continued for 1 hour at 37° C. 10 μl of test compound in 2.5% DMSO are added to the cells and incubation continued at room temperature for 30 minutes. Cells are the stimulated by the addition of 10 nM LPA and intracellular Ca^2+ measured using the Flexstation 3 (Molecular Devices). IC50s are determined using Graphpad prism analysis of drug titration curves.

Human LPA1 = target: T2, Human LPA1 (Homo sapiens, UniProt Q92633); assay: LPA1 Calcium Flux Assay; type: cell-based; conditions: human LPA1 expressing CHO cells, 10 nM LPA; read-out: Ca Flux IC50 LPA1
T2 construct: the full-length cDNA for human LPA1 was obtained by PCR of the reverse transcription reaction; expressed in transfected cells
Method: A 1.1 kb cDNA encoding the human LPA1 receptor was cloned from human lung. Human lung RNA (Clontech Laboratories, Inc. USA) was reverse transcribed using the RETROscript kit (Ambion, Inc.) and the full-length cDNA for human LPA1 was obtained by PCR of the reverse transcription reaction. The nucleotide sequence of the cloned human LPA1 was determined by sequencing and confirmed to be identical to the published human LPA1 sequence (An et al. Biochem. Biophys. Res. Commun. 231:619 (1997). The cDNA was cloned into the pCDNA5/FRT expression plasmid and transfected in CHO cells using lipofectamine 2000 (Invitrogen Corp., USA). Clones stably expressing human LPA1 were selected using hygromycin and identified as cells that show Ca-influx in response to LPA.
as §1

[1] = Pharmacokinetics in Male Beagle Dogs; type: in vivo; conditions: for bioavailability: po, 5 mg/kg, read-out: apparent oral bioavailability
Method: The pharmacokinetics of Compound 1 and Compound 2 was assessed in male Beagle dogs.
Dosing of male Beagle dogs (n=3) was performed. Compound 1 or Compound 2 was dosed intravenously at 2 mg/kg (fasted) and orally (fasted or non-fasted) at 5 mg/kg. In fasted animals, food was withheld a minimum of 12 hours prior to dosing and then returned 4 hours post-dose. Non-fasted animals were allowed to feed 1 hour prior to dosing ad libitum. Compound 2 capsules were given by oral gavage in the fasted state. Plasma samples were collected by Perry Scientific study personnel.
The capsules are noted in Table 25 below. Capsules were size 0 gelatin (Capsugel, Peapack, N.J.). Tablet formulations are noted in Example 24.
For the clinical drug product oral solution of active agent (1.67 mg/mL), sucralose (0.5% w/w) and cherry flavor (0.5% w/w) is added to the formulation as a sweetener and taste masking agent, respectively to a 0.5% methocel aqueous solution.
(§2) Blood samples (approximately 1 mL total blood) were taken from each dog at pre-dose, and an initial time of 5 or 15 min and then various time points up to 24 hours post-dose (10-11 samples per animal). Samples were collected on wet ice in tubes containing potassium EDTA. After each blood draw, the cannula was flushed with an equivalent volume of heparinized saline (0.1 mL at 40 units/mL). Plasma samples, prepared by centrifugation of whole blood, were stored frozen (−80° C.) prior to analysis.

[2] = Thermodynamic aqueous solubility; type: physicochemical; conditions: water, 25 °C, thermodynamic from solid, equilibrated at 25° C. for 24 hours, read-out: Solubility (mg/ml, free form equivalent)
Method: Aqueous solubility was determined by suspending sufficient compound in water to give a maximum final concentration of ≧10 mg·ml−1 of the parent free-form of the compound. The suspension was equilibrated at 25° C. for 24 hours then the pH was measured. The suspension was then filtered through a glass fiber C filter into a 96 well plate unless stated otherwise. The filtrate was then diluted by a factor of 101. Quantification was by HPLC with reference to a standard solution of approximately 0.25 mg·ml^−1 in DMSO. Different volumes of the standard, diluted and undiluted sample solutions were injected. The solubility was calculated using the peak areas determined by integration of the peak found at the same retention time as the principal peak in the standard injection.
Analysis was performed on an Agilent HP1100 series system equipped with a diode array detector and using ChemStation software vB.02.01-SR1.

[3] = Pharmacokinetics in Sprague-Dawley Rats; type: in vivo; conditions: for half-life: Sprague-Dawley, rat, plasma; for dose normalized exposure: oral, 10 mg/kg
Method: The pharmacokinetics of Compound 1 and Compound 2 was assessed in male and female Sprague-Dawley rats (225-300 g at 10 weeks).
Compound 2 (1 mg/kg) was administered intravenously (IV) to fasted rats (n=3) as a solution in purified water via a bolus injection into the jugular vein (1 mg/mL; 1 mL/kg). Compound 1 (10 mg/kg) was administered orally (PO), to fasted (for at least 12 hours) or non-fasted rats (n=2 or 3) as a solution in 0.5% methylcellulose unless otherwise noted via an oral gavage to the stomach (3.33 mg/mL; 3 mL/kg). Non-fasted animals were fasted for at least 12 hours and then were given food ad libitum for 1 hour prior to dosing. Fasted animals were dosed 1, 10, 30, 100 or 300 mg/kg Compound 1 as a solution in 0.5% methylcellulose via an oral gavage to the stomach (0.69 mg/mL, 10 mg/mL, 33.3 mg/mL or 100 mg/mL) (n=2 or 3 per dose group). In a gastrointestinal study, rats were anesthetized and Compound 1 was administered directly to the duodenum, jcjunum or ilcum at 1 mg/kg in 0.5% methylcellulose.
Capsules were also administered with Compound 2. Capsules were size 9 gelatin (Torpac, San Diego, Calif.).
as §2, with “(approximately 300 μL” for “(approximately 1 mL”, “each rat via the jugular vein cannula” for “each dog”

[4] = system: pancreatic cancer cell lines; conditions: in response to LPA and peritoneal fluid (ascites) from pancreatic cancer patients; cited from earlier work
[5] = system: highly peritoneal metastatic pancreatic cancer cell line; conditions: LPA-induced and ascites-induced; cited from earlier work
renal fibrosis = conditions: compared with LPA1 (−/−) mice; cited from earlier work
[6] = male, Beagle, dog, plasma, oral 5 mg/kg, fasted state

T2 sequence (Q92633 whole entry): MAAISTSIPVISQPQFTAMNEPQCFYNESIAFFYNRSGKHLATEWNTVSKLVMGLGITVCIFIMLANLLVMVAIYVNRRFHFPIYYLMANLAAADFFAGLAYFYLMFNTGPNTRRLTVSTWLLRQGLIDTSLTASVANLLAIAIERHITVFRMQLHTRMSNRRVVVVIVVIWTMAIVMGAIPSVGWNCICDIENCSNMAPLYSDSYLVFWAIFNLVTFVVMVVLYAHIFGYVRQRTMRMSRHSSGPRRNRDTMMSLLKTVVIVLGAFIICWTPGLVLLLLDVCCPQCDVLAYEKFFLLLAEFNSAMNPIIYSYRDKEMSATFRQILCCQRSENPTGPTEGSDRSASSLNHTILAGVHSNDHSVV

Structure (SMILES): Cc1noc(-c2ccc(-c3ccc(C4(C(=O)O)CC4)cc3)cc2)c1NC(=O)OC(C)c1ccccc1 (racemic) [Racemic Compound 1]
- IC50 (Human LPA3): > 1000 nM
- IC50 (Human LPA1): < 200 nM

Structure (SMILES): Cc1noc(-c2ccc(-c3ccc(C4(C(=O)[O-])CC4)cc3)cc2)c1NC(=O)O[C@H](C)c1ccccc1.[Na+] [Compound 2, 1-{4′-[3-methyl-4-((R)-1-phenyl-ethoxycarbonylamino)-isoxazol-5-yl]-biphenyl-4-yl}-cyclopropanecarboxylic acid, sodium salt]
- effect of food on absorption ([1]; dog, fasted vs fed): food has little effect on the absorption
- decrease of AUC ([1]; dosed as a capsule form, fasted): 2.5 fold
- bioavailability ([1]; male, Beagle, dog, plasma, dosed as a capsule form, fasted): 24%
- bioavailability ([1]; male, Beagle, dog, plasma, human dose solution): 57%
- bioavailability [1, 6]: 63%
- bioavailability ([1]; male, Beagle, dog, plasma, oral 5 mg/kg, fed state): 60%
- bioavailability ([1]; male, Beagle, dog, plasma, tablet formulation (first of two)): 100%
- bioavailability ([1]; male, Beagle, dog, plasma, tablet formulation (second of two)): 52%
- Vd ([1]; male, Beagle, dog, plasma, IV 2 mg/kg, read-out: estimated volume of distribution): 0.6 L/kg
- clearance ([1]; male, Beagle, dog, plasma, IV 2 mg/kg, read-out: systemic clearance): 10.5 mL/min/kg
- half-life ([1]; male, Beagle, dog, plasma, IV 2 mg/kg, read-out: terminal half-life (converted)): 3.9 h
- Cmax [1, 6]: 5500 ng/mL
- solubility at 24 h [2]: ≥ 10 mg/mL
- volume of distribution ([3]; IV 1 mg/kg): approximately two-fold total body water
- half-life ([3]; female, IV 1 mg/kg, females): 3.2 h
- half-life ([3]; male, IV 1 mg/kg, males): 3.8 h
- dose normalized exposure [3]: 2.4 µg·h/mL
- dose normalized exposure ([3]; in a gelatin capsule): 2.1 µg·h/mL

Structure (SMILES): Cc1noc(-c2ccc(CSCCC(=O)O)cc2)c1NC(=O)OC(C)c1ccccc1Cl (stereo not shown) [Ki16425]
- in vitro migration [4]: effectively blocked
- invasion activity [5]: blocked
- development of renal fibrosis in UUO mice (renal fibrosis): closely resembled the LPA1 (−/−) mice

Structure (SMILES): Cc1noc(-c2ccc(-c3ccc(C4(C(=O)O)CC4)cc3)cc2)c1NC(=O)O[C@@H](C)c1ccccc1 [S-enantiomer of Compound 1]
- IC50 (Human LPA3): > 1000 nM
- IC50 (Human LPA1): < 200 nM
